Here are results for six molecules from patent publication US11013698B2, “Combinations of LSD1 inhibitors for the treatment of hematological malignancies” (Oryzon Genomics S.A., priority 2016, dated 2021).

pEC50: −log10 of the molar value. Where only a bound is given, the exact number is not on record here.

Assay in all cases: Viability assay (96 hours), Alamar Blue
Assay type in all cases: cell-based

One data set relates to MOLM-13. Conditions: MOLM-13, 96 hours; for pEC50: Homo sapiens, single agent, read-out: EC50 (viability); for Reduction of viability (compared to vehicle controls): serial 1:3 dilution. As to the method: (§1) AML cell lines were maintained in RPMI 10% FBS medium at 37° C. in a humidified incubator with controlled 5% CO2 atmosphere. Cell freezing and thawing was performed following recommendation from ATCC. Genetic profiling of the cell lines used is available in table 2. Cells were seeded at the optimal density (to guarantee linear growth during the treatment), as previously determined (4000 cells/well, except 16000 cells/well in the case of KASUMI-1 cells), in 96-well plates with 50 μL of medium. Three wells were reserved for each experimental condition; medium-only and vehicle-treated controls were also added for background correction and normalization respectively. […] Alamar Blue® is a cell viability indicator that uses the natural reducing power of living cells to convert resazurin to the fluorescent molecule, resorufin^43.

The subject of the next data set is MV(4;11). Conditions: MV(4;11), 96 hours; for pEC50: Homo sapiens, MV4-11, single agent, read-out: EC50 (viability); for Reduction of viability (compared to vehicle controls): serial 1:3 dilution. As to the method:
as §1

The next data set has as its system OCI-AML3. Conditions: OCI-AML3, 96 hours; for pEC50: Homo sapiens, OCI-AML-3, single agent, read-out: EC50 (viability); for Reduction of viability (compared to vehicle controls): serial 1:3 dilution. As for the experimental part:
as §1

The next data set deals with HL-60. Conditions: HL-60, 96 hours; for Reduction of viability (compared to vehicle controls): serial 1:3 dilution; for pEC50: Homo sapiens, single agent, read-out: EC50 (viability). As to the method:
as §1

The subject of the next data set is OCI-AML2. Conditions: OCI-AML2, 96 hours; for pEC50: Homo sapiens, single agent, read-out: EC50 (viability); for Reduction of viability (compared to vehicle controls): serial 1:3 dilution. As for the experimental part: as §1
The test system of another data set is THP-1. Conditions: THP-1, 96 hours; for pEC50: Homo sapiens, single agent, read-out: EC50 (viability); for Reduction of viability (compared to vehicle controls): serial 1:3 dilution. As for the experimental part: as §1
The next data set concerns KASUMI-1. Conditions: KASUMI-1, 96 hours. As to the method:
as §1

With `CC(C)N(CCCNC(=O)Nc1ccc(C(C)(C)C)cc1)C[C@H]1O[C@@H](n2ccc3c(N)ncnc32)[C@H](O)[C@@H]1O` [EPZ004777, 7-[5-Deoxy-5-[[3-[[[[4-(1,1-dimethylethyl)phenyl]amino]carbonyl]amino]propyl](1-methylethyl)amino]-β-D-ribofuranosyl]-7H-pyrrolo[2,3-d]pyrimidin-4-amine], in the data set on MOLM-13, the pEC50 was 6.97 and the “Reduction of viability (compared to vehicle controls)” value (“Reduction of viability” for short) is “greater than 20%”. In addition, in the data set on MV(4;11), the pEC50 was 6.93 and the “Reduction of viability” value is “greater than 20%”.
On to `CC1=C(/C=C/C(C)=C/C=C/C(C)=C/C(=O)O)C(C)(C)CCC1` [ATRA, all-trans retinoic acid], for which the pEC50 in the data set with MOLM-13 was 8.32; in the data set with OCI-AML3, 9.10; in the data set with HL-60 it was 8.57; with OCI-AML2, 8.23; in the data set on MV(4;11), 8.55; in the data set with THP-1, 8.77. The “Reduction of viability” value in the data set on MOLM-13, in the data set on OCI-AML3, in the data set on HL-60, in the data set with OCI-AML2, in the data set with MV(4;11) and in the data set on THP-1 was “greater than 20%” in each case.
Turning to `COc1ccc(C2=N[C@@H](c3ccc(Cl)cc3)[C@@H](c3ccc(Cl)cc3)N2C(=O)N2CCNC(=O)C2)c(OC(C)C)c1` [Nutlin3A, 4-[[(4S,5R)-4,5-bis(4-chlorophenyl)-4,5-dihydro-2-[4-methoxy-2-(1-methylethoxy)phenyl]-1H-imidazol-1-yl]carbonyl]-2-piperazinone], the negative logarithm of the EC50 (pEC50) in the data set on MOLM-13 was 6.89; with OCI-AML3, 6.18; in the data set on OCI-AML2 it was 6.35; in the data set on THP-1, 6.49. For the same molecule, the “Reduction of viability” value with MOLM-13, with OCI-AML3, in the data set on OCI-AML2 and with THP-1 was “greater than 20%” in each case.
As to `CC(C)(C)c1cc(NC(=O)Nc2ccc(-c3cn4c(n3)sc3cc(OCCN5CCOCC5)ccc34)cc2)no1` [Quizartinib], the pEC50 in the data set on MOLM-13 was above 9.00; in the data set on OCI-AML2 it was 6.08; in the data set on MV(4;11), above 9.00. In addition, the “Reduction of viability” value in the data set on MOLM-13, in the data set on OCI-AML2 and with MV(4;11) was “greater than 20%” each time.
As to `CN(C)CC[C@H](CSc1ccccc1)Nc1ccc(S(=O)(=O)NC(=O)c2ccc(N3CCN(Cc4ccccc4-c4ccc(Cl)cc4)CC3)cc2)cc1[N+](=O)[O-]` [ABT737, 4-[4-[[2-(4-chlorophenyl)phenyl]methyl]piperazin-1-yl]-N-[4-[[(2R)-4-(dimethylamino)-1-phenylsulfanylbutan-2-yl]amino]-3-nitrophenyl]sulfonylbenzamide], the pEC50 in the data set with MOLM-13 is 7.60; in the data set with HL-60, 6.95; in the data set on OCI-AML2 it was 7.85; in the data set on MV(4;11), 8.20; with KASUMI-1 (Homo sapiens, single agent, read-out: EC50 (viability)) it was 6.91. Further, the “Reduction of viability” value in the data set on MOLM-13, with HL-60, with OCI-AML2, in the data set on MV(4;11) and in the data set on KASUMI-1 (serial 1:3 dilution) was “greater than 20%” in each case.
For the molecule `CC(C)N(C[C@H]1O[C@@H](n2cnc3c(N)ncnc32)[C@H](O)[C@@H]1O)[C@H]1C[C@@H](CCc2nc3cc(C(C)(C)C)ccc3[nH]2)C1` [EPZ5676, Pinometostat], the pEC50 in the data set on MOLM-13 is 7.35; in the data set with MV(4;11) it was 7.80. The “Reduction of viability” value with MOLM-13 and with MV(4;11) was “greater than 20%” each time.

As usually defined, the pEC50 is the EC50 on a negative log10 scale, so that one unit is a factor of ten.
